This is an account of results in patent US8293736B2, “Purine compounds selective for PI3K P110 delta, and methods of use” (F. Hoffmann la Roche AG, priority 2010, dated 2012).

One assay concerns the target T1, p110 delta (Homo sapiens, UniProt O00329).
T1 construct: purchased Upstate Group, Millipore; Dundee, UK
The assay can be described thus: PI3K isoform inhibition assay (fluorescence polarization), p110 delta. It counts as biochemical. The conditions noted are these: Ki apparent, Morrison equation; 25 μM ATP, 10 μM PIP2. The procedure: (§1) Determination of the activity of PI3 kinase activity of Formula I compounds is possible by a number of direct and indirect detection methods.
(§2) PI3K enzymatic activity was assayed by measuring the amount of product phosphatidylinositol 3,4,5-phosphate (PIP3) formed from substrate 4,5 phosphatidylinositol 4,5-phosphate (PIP2) using a fluorescence polarization displacement assay. The decrease in fluorescence polarization of a fluorescent PIP3 probe is measured as it is displaced from a PIP3-binding protein GRP-1 detector by PI3K-catalyzed product. […] The kinase reactions were initiated by the addition of 40 ng/mL p110α/p85α, 300 ng/mL p110β/p85α, 40 ng/mL p110γ, or 40 ng/mL p110δ/p85α (Upstate Group, Millipore; Dundee, UK), and 10 μM PIP2 (Echelon Biosciences) to the wells. […] After 60 minutes of incubation at room temperature to allow equilibration of labeled and unlabeled PIP3 binding, the parallel and perpendicular components of the fluorescence emissions from each sample were measured at an excitation wavelength of 530 nm and an emission wavelength of 590 nm using an Envision fluorescent plate reader with a rhodamine filter (PerkinElmer Life and Analytical Sciences; Wellesley, Mass.). The assay is capable of detecting 0.1-2.0 μM PIP3 product. The Ki apparent values were obtained by fitting the dose-dependent inhibition data to the Morrison equation for tight-binding, competitive inhibitors. Reference: R. A. Copeland, Enzymes. “A Practical Introduction to Structure, Mechanism and Data Analysis”.
The Formula I compound was serially diluted in 100% DMSO. The kinase reaction was incubated for 1 h at room temperature, and the reaction was terminated by the addition of PBS. IC50 values were subsequently determined using sigmoidal dose-response curve fit (variable slope). […]
On the technique in general: In fluorescence polarisation assays a small probe gives low polarisation when free and higher when bound to something large.

The target in another assay is T2, p110 alpha (Homo sapiens, UniProt P42336).
T2 construct: purchased Upstate Group, Millipore; Dundee, UK
T2 sequence (P42336 whole entry, species assumed): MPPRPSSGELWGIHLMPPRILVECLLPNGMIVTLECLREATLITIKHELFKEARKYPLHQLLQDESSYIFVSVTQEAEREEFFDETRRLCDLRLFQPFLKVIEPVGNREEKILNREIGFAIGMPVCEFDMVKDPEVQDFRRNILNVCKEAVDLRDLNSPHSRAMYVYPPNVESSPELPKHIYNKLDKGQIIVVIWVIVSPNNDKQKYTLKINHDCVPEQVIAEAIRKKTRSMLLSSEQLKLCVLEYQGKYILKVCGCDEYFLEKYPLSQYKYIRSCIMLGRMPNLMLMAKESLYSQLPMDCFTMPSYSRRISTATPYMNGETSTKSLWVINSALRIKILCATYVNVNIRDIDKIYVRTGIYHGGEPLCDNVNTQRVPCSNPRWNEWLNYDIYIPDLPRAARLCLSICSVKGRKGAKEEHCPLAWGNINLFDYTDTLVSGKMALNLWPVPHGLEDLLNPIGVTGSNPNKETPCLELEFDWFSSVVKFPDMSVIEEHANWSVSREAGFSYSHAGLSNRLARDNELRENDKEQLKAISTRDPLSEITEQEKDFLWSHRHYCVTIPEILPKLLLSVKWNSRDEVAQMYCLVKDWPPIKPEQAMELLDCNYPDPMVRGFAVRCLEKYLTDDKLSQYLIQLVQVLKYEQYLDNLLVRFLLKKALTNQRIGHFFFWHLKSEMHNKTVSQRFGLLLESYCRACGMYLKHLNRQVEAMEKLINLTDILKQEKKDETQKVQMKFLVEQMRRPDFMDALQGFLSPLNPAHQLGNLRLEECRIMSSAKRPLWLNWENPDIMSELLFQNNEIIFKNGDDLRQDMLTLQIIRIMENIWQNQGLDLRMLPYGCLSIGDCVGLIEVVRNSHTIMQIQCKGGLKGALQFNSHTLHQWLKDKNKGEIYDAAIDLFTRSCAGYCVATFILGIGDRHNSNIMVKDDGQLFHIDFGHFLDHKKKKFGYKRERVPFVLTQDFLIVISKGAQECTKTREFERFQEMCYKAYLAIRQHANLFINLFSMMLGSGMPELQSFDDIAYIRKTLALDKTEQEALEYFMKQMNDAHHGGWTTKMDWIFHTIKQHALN
T2 sequence (P27986 whole entry partner, species assumed): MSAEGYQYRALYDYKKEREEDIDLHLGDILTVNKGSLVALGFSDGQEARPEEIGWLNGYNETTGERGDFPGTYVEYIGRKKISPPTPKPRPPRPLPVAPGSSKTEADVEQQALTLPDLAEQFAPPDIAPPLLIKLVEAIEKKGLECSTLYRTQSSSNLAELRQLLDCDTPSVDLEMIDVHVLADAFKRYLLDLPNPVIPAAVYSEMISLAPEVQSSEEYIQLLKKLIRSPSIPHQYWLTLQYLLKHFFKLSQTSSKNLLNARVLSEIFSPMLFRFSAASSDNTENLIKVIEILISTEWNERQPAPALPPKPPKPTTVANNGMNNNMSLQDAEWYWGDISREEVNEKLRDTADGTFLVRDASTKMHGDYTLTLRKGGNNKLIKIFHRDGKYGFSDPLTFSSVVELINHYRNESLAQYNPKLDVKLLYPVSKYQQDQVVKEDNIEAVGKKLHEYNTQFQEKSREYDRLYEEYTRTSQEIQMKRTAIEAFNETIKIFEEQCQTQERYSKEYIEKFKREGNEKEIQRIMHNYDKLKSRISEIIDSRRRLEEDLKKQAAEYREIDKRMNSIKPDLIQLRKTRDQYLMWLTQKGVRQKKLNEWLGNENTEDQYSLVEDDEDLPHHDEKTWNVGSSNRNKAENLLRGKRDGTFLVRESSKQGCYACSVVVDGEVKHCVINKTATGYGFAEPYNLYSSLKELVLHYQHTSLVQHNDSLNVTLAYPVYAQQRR
The assay can be described thus: PI3K isoform inhibition assay (fluorescence polarization), p110 alpha. In kind it is biochemical. The conditions noted are these: delta/alpha selectivity ratio. As to the method: as §1, §2
The same protocol may be used to establish Ki values for p110α (alpha) PI3K binding.
The four Class I PI 3-kinases are cloned into baculovirus vectors as follows: […]

T1 sequence (O00329 whole entry): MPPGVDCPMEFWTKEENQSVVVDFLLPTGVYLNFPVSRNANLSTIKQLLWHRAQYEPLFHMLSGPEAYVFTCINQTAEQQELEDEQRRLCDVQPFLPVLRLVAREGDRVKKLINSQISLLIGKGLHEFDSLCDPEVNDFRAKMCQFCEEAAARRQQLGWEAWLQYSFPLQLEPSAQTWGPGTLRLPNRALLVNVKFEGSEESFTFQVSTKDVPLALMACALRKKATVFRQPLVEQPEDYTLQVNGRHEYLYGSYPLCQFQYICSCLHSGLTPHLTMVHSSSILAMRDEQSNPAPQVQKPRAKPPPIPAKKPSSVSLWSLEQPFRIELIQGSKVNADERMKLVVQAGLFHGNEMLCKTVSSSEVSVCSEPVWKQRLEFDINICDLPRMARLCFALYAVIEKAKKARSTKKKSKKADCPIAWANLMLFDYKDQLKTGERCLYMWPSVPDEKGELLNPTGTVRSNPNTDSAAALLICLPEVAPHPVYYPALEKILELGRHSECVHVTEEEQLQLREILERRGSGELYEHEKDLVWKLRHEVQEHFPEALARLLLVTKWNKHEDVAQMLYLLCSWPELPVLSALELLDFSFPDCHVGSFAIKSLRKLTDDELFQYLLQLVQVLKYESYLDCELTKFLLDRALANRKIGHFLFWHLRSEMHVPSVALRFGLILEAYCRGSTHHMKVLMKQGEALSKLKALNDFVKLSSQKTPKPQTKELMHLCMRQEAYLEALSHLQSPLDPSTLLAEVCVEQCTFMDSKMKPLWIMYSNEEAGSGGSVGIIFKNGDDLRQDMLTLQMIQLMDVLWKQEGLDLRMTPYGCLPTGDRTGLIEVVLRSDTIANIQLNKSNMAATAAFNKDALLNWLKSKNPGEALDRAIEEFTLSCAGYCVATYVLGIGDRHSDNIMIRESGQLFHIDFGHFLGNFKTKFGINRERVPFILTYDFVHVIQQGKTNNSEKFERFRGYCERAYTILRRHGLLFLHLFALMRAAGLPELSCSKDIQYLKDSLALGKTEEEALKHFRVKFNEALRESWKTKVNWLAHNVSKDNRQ
T1 sequence (P27986 whole entry partner): as the sequence (P27986 whole entry partner, species assumed) above

Consider `CCc1nc2ccccc2n1-c1nc(N2CCOCC2)c2nc(OC3CN(C(=O)C4C[C@@H]4F)C3)n(C)c2n1` (stereo partly drawn) [Compound 157, (3-(2-(2-ethyl-1H-benzo[d]imidazol-1-yl)-9-methyl-6-morpholino-9H-purin-8-yloxy)azetidin-1-yl)((2S)-2-fluorocyclopropyl)methanone], for which, at p110 delta, the Ki amounted to 460 pM. For the same compound, on p110 alpha, the “Ki p110 alpha/ Ki p110 delta” value is listed as 104.

Turning to `CCc1nc2ccccc2n1-c1nc(N2CCOCC2)c2nc(OC3CN(C(=O)C(C)(C)F)C3)n(C)c2n1` [Compound 147, 1-(3-(2-(2-ethyl-1H-benzo[d]imidazol-1-yl)-9-methyl-6-morpholino-9H-purin-8-yloxy)azetidin-1-yl)-2-fluoro-2-methylpropan-1-one], the Ki at p110 delta was determined as 2330 pM. Further, the “Ki p110 alpha/ Ki p110 delta” value at p110 alpha is reported as 72.

Consider `CCc1nc2ccccc2n1-c1nc(N2CCOCC2)c2nc(OC3CN(C(=O)C4CC4)C3C)n(C)c2n1` (stereo not drawn) [Compound 148, cyclopropyl(3-(2-(2-ethyl-1H-benzo[d]imidazol-1-yl)-9-methyl-6-morpholino-9H-purin-8-yloxy)-2-methylazetidin-1-yl)methanone], for which the Ki on p110 delta was 340 pM. Moreover, the “Ki p110 alpha/ Ki p110 delta” value at p110 alpha is 259.

On to `CCc1nc2ccccc2n1-c1nc(N2CCOCC2)c2nc(OC3CN(C(=O)[C@H]4CC45CCC5)C3)n(C)c2n1` [Compound 152, (S)-(3-(2-(2-ethyl-1H-benzo [d]imidazol-1-yl)-9-methyl-6-morpholino-9H-purin-8-yloxy)azetidin-1-yl) (spiro[2.3]hexan-1-yl) methanone], for which, on p110 delta, the Ki is 701 pM. For the same compound, at p110 alpha, the “Ki p110 alpha/ Ki p110 delta” value is listed as 107.

For the compound `CCc1nc2ccccc2n1-c1nc(N2CCOCC2)c2nc(OC3CN(C4CCS(=O)(=O)CC4)C3)n(C)c2n1` [Compound 114, 4-(2-(2-ethyl-1H-benzo[d]imidazol-1-yl)-9-methyl-8-(1-(1,1-dioxo-tetrahydro-2H-thiopyran-4-yl)azetidin-3-yloxy)-9H-purin-6-yl)morpholine], the Ki at p110 delta turned out to be 1260 pM. Further, the “Ki p110 alpha/ Ki p110 delta” value on p110 alpha stood at 163.

On to `CC(C)C(=O)N1CC(Oc2nc3c(N4CCOCC4)nc(-n4c(CCO)nc5ccccc54)nc3n2C)C1` [Compound 138, 1-(3-(2-(2-(2-hydroxyethyl)-1H-benzo[d]imidazol-1-yl)-9-methyl-6-morpholino-9H-purin-8-yloxy)azetidin-1-yl)-2-methylpropan-1-one], for which the Ki on p110 delta was found to be 3910 pM. The “Ki p110 alpha/ Ki p110 delta” value on p110 alpha is 68.

`CCc1nc2ccccc2n1-c1nc(N2CCOCC2)c2nc(OC3CN(C(=O)[C@H](C)OC)C3)n(C)c2n1` [Compound 120, (S)-1-(3-(2-(2-ethyl-1H-benzo[d]imidazol-1-yl)-9-methyl-6-morpholino-9H-purin-8-yloxy)azetidin-1-yl)-2-methoxypropan-1-one]: the Ki on p110 delta was found to be 1240 pM. In addition, the “Ki p110 alpha/ Ki p110 delta” value at p110 alpha came out at 93.

Consider `CO[C@H](C)c1nc2ccccc2n1-c1nc(N2CCOCC2)c2nc(OC3CN(C4CCS(=O)(=O)CC4)C3)n(C)c2n1` [Compound 142, (R)-4-(2-(2-(1-methoxyethyl)-1H-benzo[d]imidazol-1-yl)-9-methyl-8-(1-(1,1-dioxo-tetrahydro-2H-thiopyran-4-yl)azetidin-3-yloxy)-9H-purin-6-yl)morpholine], for which the Ki on p110 delta came to 1610 pM. For the same compound, on p110 alpha, the “Ki p110 alpha/ Ki p110 delta” value came out at 96.

Regarding `Cc1nc2ccccc2n1-c1nc(N2CCOCC2)c2nc(OC3CCN(C4CCOCC4)CC3)n(C)c2n1` [Compound 127, 4-(9-methyl-2-(2-methyl-1H-benzo[d]imidazol-1-yl)-8-(1-(tetrahydro-2H-pyran-4-yl)piperidin-4-yloxy)-9H-purin-6-yl)morpholine], the Ki at p110 delta is 252 pM. For the same compound, the “Ki p110 alpha/ Ki p110 delta” value on p110 alpha is 105.

Take `CCc1nc2ccccc2n1-c1nc(N2CCOCC2)c2nc(OC3CCNCC3)n(C)c2n1` [Compound 124, 4-(2-(2-ethyl-1H-benzo[d]imidazol-1-yl)-9-methyl-8-(piperidin-4-yloxy)-9H-purin-6-yl)morpholine]: the Ki on p110 delta turned out to be 910 pM. For the same compound, the “Ki p110 alpha/ Ki p110 delta” value on p110 alpha is recorded as 188.

Consider `CCc1nc2ccccc2n1-c1nc(N2CCOCC2)c2nc(OC3CN(C(=O)C(C)(C)N)C3)n(C)c2n1` [Compound 121, 2-amino-1-(3-(2-(2-ethyl-1H-benzo[d]imidazol-1-yl)-9-methyl-6-morpholino-9H-purin-8-yloxy)azetidin-1-yl)-2-methylpropan-1-one], for which the Ki on p110 delta turned out to be 1290 pM. For the same compound, the “Ki p110 alpha/ Ki p110 delta” value on p110 alpha is 51.

For the compound `CC(C)C(=O)N1CC(Oc2nc3c(N4CCOCC4)nc(-n4c(C(C)(F)F)nc5ccccc54)nc3n2C)C1` [Compound 132, 1-(3-(2-(2-(1,1-difluoroethyl)-1H-benzo[d]imidazol-1-yl)-9-methyl-6-morpholino-9H-purin-8-yloxy)azetidin-1-yl)-2-methylpropan-1-one], the Ki at p110 delta is 929 pM. Moreover, the “Ki p110 alpha/ Ki p110 delta” value on p110 alpha came out at 31.

With `CCc1nc2ccccc2n1-c1nc(N2CCOCC2)c2nc(OC3CCN(C4CCS(=O)(=O)CC4)CC3)n(C)c2n1` [Compound 106, 4-(2-(2-ethyl-1H-benzo[d]imidazol-1-yl)-9-methyl-8-(1,1-dioxo-1-(tetrahydro-2H-thiopyran-4-yl)piperidin-4-yloxy)-9H-purin-6-yl)morpholine], the Ki at p110 delta was determined as 441 pM. On p110 alpha, the “Ki p110 alpha/ Ki p110 delta” value worked out at 73.

`CCc1nc2ccccc2n1-c1nc(N2CCOCC2)c2nc(OC3CCN(C(=O)C(C)C)CC3)n(C)c2n1` [Compound 108, 1-(4-(2-(2-ethyl-1H-benzo[d]imidazol-1-yl)-9-methyl-6-morpholino-9H-purin-8-yloxy)piperidin-1-yl)-2-methylpropan-1-one]: the Ki at p110 delta was determined as 494 pM. In addition, the “Ki p110 alpha/ Ki p110 delta” value on p110 alpha was 177.

For the compound `CCc1nc2ccccc2n1-c1nc(N2CCOCC2)c2nc(OC3CN(C(=O)[C@@H](C)OC)C3)n(C)c2n1` [Compound 117, (R)-1-(3-(2-(2-ethyl-1H-benzo[d]imidazol-1-yl)-9-methyl-6-morpholino-9H-purin-8-yloxy)azetidin-1-yl)-2-methoxypropan-1-one], the Ki on p110 delta is 503 pM. Further, the “Ki p110 alpha/ Ki p110 delta” value on p110 alpha came out at 132.

Turning to `CCc1nc2ccccc2n1-c1nc(N2CCOCC2)c2nc(OC3CN(C4CC[S+]([O-])CC4)C3)n(C)c2n1` (single isomer, unassigned) [Compound 123, 4-(2-(2-ethyl-1H-benzo[d]imidazol-1-yl)-9-methyl-8-(1-(1-oxo-tetrahydro-2H-thiopyran-4-yl)azetidin-3-yloxy)-9H-purin-6-yl)morpholine], the Ki at p110 delta was found to be 657 pM. In addition, the “Ki p110 alpha/ Ki p110 delta” value at p110 alpha turned out to be 178.

Turning to `CCc1nc2ccccc2n1-c1nc(N2CCOCC2)c2nc(OC3CN(C4CCOCC4)C3)n(C)c2n1` [Compound 116, 4-(2-(2-ethyl-1H-benzo[d]imidazol-1-yl)-9-methyl-8-(1-(tetrahydro-2H-pyran-4-yl)azetidin-3-yloxy)-9H-purin-6-yl)morpholine], on p110 delta, the Ki came out at 1280 pM. Moreover, the “Ki p110 alpha/ Ki p110 delta” value on p110 alpha amounted to 118.

For `CCc1nc2ccccc2n1-c1nc(N2CCOCC2)c2nc(OC3CN(C(=O)C4(C#N)CC4)C3)n(C)c2n1` [Compound 150, 1-(3-(2-(2-ethyl-1H-benzo [d]imidazol-1-yl)-9-methyl-6-morpholino-9H-purin-8-yloxy)azetidine-1-carbonyl) cyclopropanecarbonitrile], on p110 delta, the Ki amounted to 2860 pM. The “Ki p110 alpha/ Ki p110 delta” value at p110 alpha amounted to 30.

Regarding `CCc1nc2ccccc2n1-c1nc(N2CCOCC2)c2nc(OC3CN(C(=O)C4C[C@H]4F)C3)n(C)c2n1` (stereo partly drawn) [Compound 154, (3-(2-(2-ethyl-1H-benzo [d]imidazol-1-yl)-9-methyl-6-morpholino-9H-purin-8-yloxy)azetidin-1-yl)((2R)-2-fluorocyclopropyl)methanone], the Ki at p110 delta is 573 pM. Moreover, on p110 alpha, the “Ki p110 alpha/ Ki p110 delta” value is 102.

Consider `CCc1nc2ccccc2n1-c1nc(N2CCOCC2)c2nc(OC3CCN(C(C)=O)CC3)n(C)c2n1` [Compound 102, 1-(4-(2-(2-ethyl-1H-benzo[d]imidazol-1-yl)-9-methyl-6-morpholino-9H-purin-8-yloxy)piperidin-1-yl)ethanone], for which the Ki on p110 delta was found to be 1020 pM. At p110 alpha, the “Ki p110 alpha/ Ki p110 delta” value amounted to 81.

Consider `CCc1nc2ccccc2n1-c1nc(N2CCOCC2)c2nc(OC3CN(C(=O)C4(F)CC4)C3)n(C)c2n1` [Compound 146, (3-(2-(2-ethyl-1H-benzo[d]imidazol-1-yl)-9-methyl-6-morpholino-9H-purin-8-yloxy)azetidin-1-yl)(1-fluorocyclopropyl)methanone], for which the Ki on p110 delta was 4460 pM. Moreover, at p110 alpha, the “Ki p110 alpha/ Ki p110 delta” value came to 41.
